Measurements: paper PMC6001238, “Iterative Chemical Engineering of Vancomycin Leads to Novel Vancomycin Analogs With a High in Vitro Therapeutic Index” (Frontiers in Microbiology, 2018)
≈ marks a conversion by molar mass, not a printed value. Where two headings read alike, the source gives them in different places.

Experiments:
[1] = test system: B. subtilis PSB3; experiment: MIC, broth microdilution, B. subtilis PSB3; format: cell-based, Bacillus subtilis; conditions: for MICvanc/MICi: ratio of MIC of vancomycin and MIC of analogue
Procedure: (§1) The minimum inhibitory concentration (MIC) was determined using the broth microdilution method according to the antimicrobial susceptibility testing standards of the clinical and laboratory standards institute ([Clinical and Laboratory Standards Institute [CLSI], 2012]). Ultrapure water and non-inoculated broth were used as controls. In one case, a final concentration of 10 μM vancomycin was included with the vancomycin analog or control antibiotic.

[2] = test system: E. coli XL-1 blue MRF'; experiment: MIC, broth microdilution, E. coli XL-1 blue MRF'; format: cell-based, Escherichia coli; conditions: E. coli XL-1 blue MRF'; for MICvanc/MICi: ratio of MIC of vancomycin and MIC of analogue
Procedure: as §1

[3] = test system: E. faecalis VSE 1; experiment: MIC, broth microdilution, vancomycin-sensitive E. faecalis (VSE 1); format: cell-based, Enterococcus faecalis; conditions: for MICvanc/MICi / MIC-fold improvement vs. vancomycin: ratio of MIC of vancomycin and MIC of analogue; for MIC: read-out: MIC; for MIC-fold improvement vs. vancomycin: VSE 1
Method in brief: (§2)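 Assayed by broth microdilution under CLSI antimicrobial testing rules. One case paired the analog or control drug with vancomycin at a 10 μM final concentration; water and inoculum-free broth were controls.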

[4] = test system: E. faecalis VRE 6; experiment: MIC, broth microdilution, vancomycin-resistant E. faecalis VRE 6 (VanA); format: cell-based, Enterococcus faecalis; conditions: for MIC: read-out: MIC
Method in brief: as §2

[5] = test system: E. faecalis VRE 53; experiment: MIC, broth microdilution, vancomycin-resistant E. faecalis VRE 53 (VanA); format: cell-based, Enterococcus faecalis; conditions: for MICvanc/MICi / MIC-fold improvement vs. vancomycin: ratio of MIC of vancomycin and MIC of analogue; for MIC: read-out: MIC; for MIC-fold improvement vs. vancomycin: VRE 53
Method in brief: as §2

[6] = test system: E. faecalis VRE 29; experiment: MIC, broth microdilution, vancomycin-resistant E. faecalis VRE 29 (VanA); format: cell-based, Enterococcus faecalis; conditions: for MIC: Enterococcus faecalis VRE 29 (vancomycin-resistant), read-out: MIC; for MIC-fold improvement vs. vancomycin: VRE 29, ratio of MIC of vancomycin and MIC of analogue
Method in brief: as §2

[7] = test system: E. faecalis VRE 37; experiment: MIC, broth microdilution, vancomycin-resistant E. faecalis VRE 37 (VanA); format: cell-based, Enterococcus faecalis; conditions: for MIC: Enterococcus faecalis VRE 37 (vancomycin-resistant), read-out: MIC; for MIC-fold improvement vs. vancomycin: VRE 37, ratio of MIC of vancomycin and MIC of analogue
Method in brief: as §2

[8] = test system: Murine leukemia (L1210) cells; experiment: Cytostatic activity, L1210 cell proliferation; format: cell-based; conditions: mean ± SD of three experiments; highest concentration tested 250 µM; 2 days; read-out: Toxicity (IC50) L1210
Method in brief: (§3)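 Readout: Coulter cell number after drug exposure at 37°C. Durations differ by line (L1210 2 days; CEM 3 days; HeLa 4 days). Stock suspension 300,000–500,000 cells/mL, diluted by mixing with compound. Endpoint: IC50 vs negative control.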

[9] = test system: human T-lymphocyte (CEM) cells; experiment: Cytostatic activity, CEM cell proliferation; format: cell-based; conditions: mean ± SD of three experiments; highest concentration tested 250 µM; 3 days; read-out: Toxicity (IC50) CEM
Method in brief: as §3

[10] = test system: human cervix carcinoma (HeLa) cells; experiment: Cytostatic activity, HeLa cell proliferation; format: cell-based; conditions: mean ± SD of three experiments; highest concentration tested 250 µM; 4 days; read-out: Toxicity (IC50) HeLa
Method in brief: as §3

[11] = test system: L1210, CEM and HeLa cell lines; experiment: Cytostatic activity, average or summary over L1210, CEM and HeLa; format: cell-based
Method in brief: as §3

[12] = test system: S. aureus VSSA (ATCC 6538); experiment: MIC, broth microdilution, vancomycin-sensitive S. aureus (VSSA/MSSA, ATCC 6538); format: cell-based, Staphylococcus aureus; conditions: for MIC: Staphylococcus aureus VSSA, read-out: MIC; for MIC-fold improvement vs. vancomycin: VSSA, ratio of MIC of vancomycin and MIC of analogue
Method in brief: as §2

[13] = test system: S. aureus VISA/HIP5827; experiment: MIC, broth microdilution, vancomycin-intermediate S. aureus VISA HIP5827; format: cell-based, Staphylococcus aureus; conditions: for MIC: Staphylococcus aureus VISA/HIP5827, read-out: MIC; for MIC-fold improvement vs. vancomycin: VISA/HIP5827, ratio of MIC of vancomycin and MIC of analogue
Method in brief: as §2

[14] = test system: S. aureus VRSA; experiment: MIC, broth microdilution, vancomycin-resistant S. aureus (VRSA); format: cell-based, Staphylococcus aureus; conditions: for MIC: Staphylococcus aureus VRSA, read-out: MIC; for MIC-fold improvement vs. vancomycin: VRSA, ratio of MIC of vancomycin and MIC of analogue
Method in brief: as §2

[15] = test system: MRSA KS2; experiment: MIC, broth microdilution, MRSA KS2; format: cell-based, Staphylococcus aureus; conditions: for MIC-fold improvement vs. vancomycin: MRSA KS2, ratio of MIC of vancomycin and MIC of analogue; for MIC: Staphylococcus aureus MRSA KS2, read-out: MIC
Method in brief: as §2

[16] = test system: MRSA KS6; experiment: MIC, broth microdilution, MRSA KS6; format: cell-based, Staphylococcus aureus; conditions: for MIC-fold improvement vs. vancomycin: MRSA KS6, ratio of MIC of vancomycin and MIC of analogue; for MIC: Staphylococcus aureus MRSA KS6, read-out: MIC
Method in brief: as §2

[17] = test system: MRSA KS89; experiment: MIC, broth microdilution, MRSA KS89; format: cell-based, Staphylococcus aureus; conditions: for MIC-fold improvement vs. vancomycin: MRSA KS8, ratio of MIC of vancomycin and MIC of analogue; for MIC: Staphylococcus aureus MRSA KS8, read-out: MIC
Method in brief: as §2

[18] = test system: MRSA KS1; experiment: MIC, broth microdilution, MRSA KS1; format: cell-based, Staphylococcus aureus; conditions: for MIC-fold improvement vs. vancomycin: MRSA KS1, ratio of MIC of vancomycin and MIC of analogue; for MIC: Staphylococcus aureus MRSA KS1, read-out: MIC
Method in brief: as §2

[19] = Enterococcus faecalis VSE 1 (vancomycin-sensitive)
[20] = E. faecalis VRE 6, ratio of MIC of vancomycin and MIC of analogue
[21] = Enterococcus faecalis VRE 6 (vancomycin-resistant)
[22] = Enterococcus faecalis VRE 53 (vancomycin-resistant)
[23] = average of L1210, CEM and HeLa, read-out: Toxicity (IC50) Average

Compound | MIC [1] [µM] | MICvanc/MICi [1] | MIC [2] [µM] | MICvanc/MICi [2] | MICvanc/MICi ([3]; E. faecalis VSE 1) | MIC ([3]; E. faecalis VSE 1) [µM] | MIC [3, 19] [µM] | MIC-fold improvement vs. vancomycin [3] | MICvanc/MICi [4, 20] | MIC ([4]; E. faecalis VRE 6) [µM] | MIC [4, 21] [µM] | MICvanc/MICi ([5]; E. faecalis VRE 53) | MIC ([5]; E. faecalis VRE 53) [µM] | MIC [5, 22] [µM] | MIC-fold improvement vs. vancomycin [5] | MIC [6] [µM] | MIC-fold improvement vs. vancomycin [6] | MIC [7] [µM] | MIC-fold improvement vs. vancomycin [7] | IC50 [8] [µM] | also measured
C#Cc1ccc(/C=C/C(=O)NCCNC(=O)[C@H]2NC(=O)[C@H]3NC(=O)[C@H](NC(=O)[C@@H]4NC(=O)[C@H](CC(N)=O)NC(=O)[C@H](NC(=O)[C@@H](CC(C)C)NC)[C@H](O)c5ccc(c(Cl)c5)Oc5cc4cc(c5O[C@@H]4O[C@H](CO)[C@@H](O)[C@H](O)[C@H]4O[C@H]4C[C@](C)(N)[C@H](O)[C@H](C)O4)Oc4ccc(cc4Cl)[C@H]3O)c3ccc(O)c(c3)-c3c(O)cc(O)cc32)cc1 [Vanc-Q] | 0.39 (≈ 0.642 µg/mL) | 1 | 12.5 (≈ 20.6 µg/mL) | 8 | 16 | 0.10 (≈ 0.165 µg/mL) | 0.10 (≈ 0.165 µg/mL) | 16 | 32 | 6.25 (≈ 10.3 µg/mL) | 6.25 (≈ 10.3 µg/mL) | 64 | 6.25 (≈ 10.3 µg/mL) | 6.25 (≈ 10.3 µg/mL) | 64 | 25 (≈ 41.1 µg/mL) | 16 | 50 (≈ 82.3 µg/mL) | 16 | > 250 | MIC-fold improvement vs. vancomycin ([4]; VRE 6, ratio of MIC of vancomycin and MIC of analogue): 32; IC50 [9]: > 250 µM; IC50 [10]: > 250 µM; IC50 [11, 23]: > 250 µM; IC50 ([11]; summary over the three cell lines, read-out: IC50 (L1210, CEM, HeLa), depending on the cell line used): > 250 µM; MIC [12]: 0.20 µM (≈ 0.329 µg/mL); MIC-fold improvement vs. vancomycin [12]: 4; MIC [13]: 1.56 µM (≈ 2.57 µg/mL); MIC-fold improvement vs. vancomycin [13]: 4; MIC [14]: 12.5 µM (≈ 20.6 µg/mL); MIC-fold improvement vs. vancomycin [14]: 8; MIC-fold improvement vs. vancomycin [15]: 0.5; MIC [15]: 1.56 µM (≈ 2.57 µg/mL); MIC-fold improvement vs. vancomycin [16]: 1; MIC [16]: 0.78 µM (≈ 1.28 µg/mL); MIC-fold improvement vs. vancomycin [17]: 1; MIC [17]: 0.78 µM (≈ 1.28 µg/mL); MIC-fold improvement vs. vancomycin [18]: 2; MIC [18]: 0.39 µM (≈ 0.642 µg/mL)
C#Cc1ccc(C=Cc2ccc(NC(=O)CNC(=O)C3NC(=O)C4NC(=O)C(NC(=O)C5NC(=O)C(CC(N)=O)NC(=O)C(NC(=O)C(CC(C)C)NC)C(O)c6ccc(c(Cl)c6)Oc6cc5cc(c6OC5OC(CO)C(O)C(O)C5OC5CC(C)(N)C(O)C(C)O5)Oc5ccc(cc5Cl)C4O)c4ccc(O)c(c4)-c4c(O)cc(O)cc43)cc2)cc1 (stereo not shown) [Vanc-R] | 0.78 (≈ 1.33 µg/mL) | 0.5 | 100 (≈ 171 µg/mL) | 1 | 8 | 0.20 (≈ 0.342 µg/mL) | 0.19 (≈ 0.324 µg/mL) | 8 | 64 | 3.13 (≈ 5.34 µg/mL) | 3.13 (≈ 5.34 µg/mL) | 64 | 6.25 (≈ 10.7 µg/mL) | 6.25 (≈ 10.7 µg/mL) | 64 | 1.56 (≈ 2.66 µg/mL) | 256 | 12.5 (≈ 21.3 µg/mL) | 64 | 5.7 ± 0.7 | IC50 [9]: 1.4 ± 0.6 µM; IC50 [10]: 15 ± 1 µM; IC50 [11, 23]: 7 µM; MIC [12]: 0.10 µM (≈ 0.171 µg/mL); MIC-fold improvement vs. vancomycin [12]: 8; MIC [13]: 0.78 µM (≈ 1.33 µg/mL); MIC-fold improvement vs. vancomycin [13]: 8; MIC [14]: 1.56 µM (≈ 2.66 µg/mL); MIC-fold improvement vs. vancomycin [14]: 64; MIC-fold improvement vs. vancomycin [15]: 2; MIC [15]: 0.39 µM (≈ 0.666 µg/mL); MIC-fold improvement vs. vancomycin [16]: 2; MIC [16]: 0.39 µM (≈ 0.666 µg/mL); MIC-fold improvement vs. vancomycin [17]: 2; MIC [17]: 0.39 µM (≈ 0.666 µg/mL); MIC-fold improvement vs. vancomycin [18]: 1; MIC [18]: 0.78 µM (≈ 1.33 µg/mL)
